In patent US11548871B2, “Triazole carbamate pyridyl sulfonamides as LPA receptor antagonists and uses thereof” (Gilead Sciences, Inc., priority 2019, dated 2023):

Target: human LPAR1 (Homo sapiens, UniProt Q92633)
Assay: LPAR1 intracellular calcium mobilization assay (antagonist mode)
Protocol: In vitro LPAR1 activity was measured in an intracellular calcium mobilization assay.
Prior to testing cell media were aspirated from the cells and replaced with 20 μL Calcium Dye Loading Buffer (DiscoverX Calcium NoWash^PLUS Assay Kit cat #90-0091) and 2.5 mM Probenecid (Sigma Aldrich cat #P8761, prepared fresh) in HBSS/20 mM Hepes for 60 min at 37° C.
For agonist dose curves, cells were removed from the incubator after dye loading and 10 μL HBSS/20 mM Hepes including 3× vehicle was added. Cells were incubated for 30 min at room temperature in the dark to equilibrate plate temperatures. An intermediate LPA dilution series was prepared in assay buffer to generate 4× stock. Calcium mobilization was monitored on a FLIPR Tetra (MDS, San Jose, Calif.) for 2 min and 10 μL 4×LPA in HBSS/20 mM Hepes was added to the cells 5 s into the assay.
An intermediate antagonist dilution series was prepared as 3× samples in assay buffer. After dye loading, cells were removed from the incubator and 10 μL 3× antagonist was added. Cells were incubated for 30 min at room temperature in the dark to equilibrate plate temperatures. The final vehicle (DMSO) concentration was 1%. Compound antagonist activities was measured on a FLIPR Tetra. Calcium mobilization was monitored for 2 min and 10 μL EC80 agonist in HBSS/20 mM Hepes was added to the cells 5 s into the assay. Compound activity was analyzed using CBIS data analysis suite (ChemInnovation Software, San Diego, Calif.).

human LPAR1, sequence (Q92633 whole entry): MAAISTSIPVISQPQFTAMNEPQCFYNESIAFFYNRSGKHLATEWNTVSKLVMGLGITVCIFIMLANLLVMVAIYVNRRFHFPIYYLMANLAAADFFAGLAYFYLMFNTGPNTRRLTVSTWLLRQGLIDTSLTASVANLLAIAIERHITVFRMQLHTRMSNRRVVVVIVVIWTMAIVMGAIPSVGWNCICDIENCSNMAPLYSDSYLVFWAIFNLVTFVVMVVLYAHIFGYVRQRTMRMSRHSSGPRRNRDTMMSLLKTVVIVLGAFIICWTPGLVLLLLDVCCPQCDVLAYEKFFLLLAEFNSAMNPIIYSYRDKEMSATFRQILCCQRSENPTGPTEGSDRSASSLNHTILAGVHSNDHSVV

Row | EC50 [nM] | Structure (SMILES)
1 | 87 | Cc1nc(-c2nnn(C)c2NC(=O)OCc2ccccc2Cl)ccc1NS(C)(=O)=O [Compound 40, 2-chlorobenzyl (1-methyl-4-(6-methyl-5-(methylsulfonamido)pyridin-2-yl)-1H-1,2,3-triazol-5-yl)carbamate]
2 | 1830 | Cc1nc(-c2nnn(C)c2NC(=O)OC(C)c2cc(Cl)nnc2Cl)ccc1NS(C)(=O)=O (centres unmarked) [Compound 134, 1-(3,6-dichloropyridazin-4-yl)ethyl (1-methyl-4-(6-methyl-5-(methylsulfonamido)pyridin-2-yl)-1H-1,2,3-triazol-5-yl)carbamate]
3 | 110 | Cc1nc(-c2nnn(C)c2NC(=O)O[C@H](C)c2cc(F)cnc2Cl)ccc1NS(C)(=O)=O [Compound 74, (R)-1-(2-chloro-5-fluoropyridin-3-yl)ethyl (1-methyl-4-(6-methyl-5-(methylsulfonamido)pyridin-2-yl)-1H-1,2,3-triazol-5-yl)carbamate]
4 | 1700 | Cc1nc(-c2nnn(C)c2NC(=O)OC(C)c2cnc(Cl)nc2Cl)ccc1NS(C)(=O)=O (centres unmarked) [Compound 133, 1-(2,4-dichloropyrimidin-5-yl)ethyl (1-methyl-4-(6-methyl-5-(methylsulfonamido)pyridin-2-yl)-1H-1,2,3-triazol-5-yl)carbamate]
5 | 29 | Cc1nc(-c2nnn(C)c2NC(=O)O[C@@H](c2cccc(Cl)c2)C(F)F)ccc1NS(C)(=O)=O [Compound 62, (S)-1-(3-chlorophenyl)-2,2-difluoroethyl (1-methyl-4-(6-methyl-5-(methylsulfonamido)pyridin-2-yl)-1H-1,2,3-triazol-5-yl)carbamate]
6 | 232 | Cc1nc(-c2nnn(C)c2NC(=O)OC(C)c2cc(F)cnc2Br)ccc1NS(C)(=O)=O (centres unmarked) [Compound 126, 1-(2-bromo-5-fluoropyridin-3-yl)ethyl (1-methyl-4-(6-methyl-5-(methylsulfonamido)pyridin-2-yl)-1H-1,2,3-triazol-5-yl)carbamate]
7 | 155 | Cc1nc(-c2nnn(C)c2NC(=O)OC(C)c2ccncc2Cl)ccc1NS(C)(=O)=O (centres unmarked) [Compound 75, 1-(3-chloropyridin-4-yl)ethyl (1-methyl-4-(6-methyl-5-(methylsulfonamido)pyridin-2-yl)-1H-1,2,3-triazol-5-yl)carbamate]
8 | 1740 | CCCCC[C@@H](C)OC(=O)Nc1c(-c2ccc(NS(C)(=O)=O)c(C)n2)nnn1C [Compound 71, (R)-heptan-2-yl (1-methyl-4-(6-methyl-5-(methylsulfonamido)pyridin-2-yl)-1H-1,2,3-triazol-5-yl)carbamate]
9 | 56.3 | Cc1nc(-c2nnn(C)c2NC(=O)O[C@H](C)c2ccccc2Cl)ccc1NS(=O)(=O)C1CC1 [Compound 103, (R)-1-(2-chloro-phenyl)ethyl(4-(5-(cyclopropane-sulfonamido)-6-methylpyridin-2-yl)-1-methyl-1H-1,2,3-triazol-5-yl)carbamate]
10 | 929 | Cc1nc(-c2nnn(C)c2NC(=O)OC(C)c2nccnc2Cl)ccc1NS(C)(=O)=O (centres unmarked) [Compound 76, 1-(3-chloropyrazin-2-yl)ethyl (1-methyl-4-(6-methyl-5-(methylsulfonamido)pyridin-2-yl)-1H-1,2,3-triazol-5-yl)carbamate]
11 | 61.7 | COc1nc(-c2nnn(C)c2NC(=O)O[C@H](C)c2ccccc2Cl)ccc1NS(C)(=O)=O [Compound 4, (R)-1-(2-chlorophenyl)ethyl (4-(6-methoxy-5-(methylsulfonamido)pyridin-2-yl)-1-methyl-1H-1,2,3-triazol-5-yl)carbamate]
12 | 235 | COCc1nc(-c2nnn(C)c2NC(=O)O[C@H](C)c2cc(F)cnc2Cl)ccc1NS(C)(=O)=O [Compound 144, (R)-1-(2-Chloro-5-fluoropyridin-3-yl)ethyl (4-(6-(methoxymethyl)-5-(methylsulfonamido)pyridin-2-yl)-1-methyl-1H-1,2,3-triazol-5-yl)carbamate]
13 | 36 | C[C@@H](OC(=O)Nc1c(-c2ccc(NS(C)(=O)=O)cn2)nnn1C)c1cccnc1Cl [Compound 23, (R)-1-(2-chloropyridin-3-yl)ethyl (1-methyl-4-(5-(methylsulfonamido)pyridin-2-yl)-1H-1,2,3-triazol-5-yl)carbamate]
14 | 163 | Cc1nc(-c2nnn(C)c2NC(=O)O[C@H](C)c2nc(Cl)sc2Cl)ccc1NS(C)(=O)=O [Compound 139, (R)-1-(2,5-dichlorothiazol-4-yl)ethyl (1-methyl-4-(6-methyl-5-(methylsulfonamido)pyridin-2-yl)-1H-1,2,3-triazol-5-yl)carbamate]
15 | 207 | C[C@@H](OC(=O)Nc1c(-c2ccc(NS(C)(=O)=O)c(F)n2)nnn1C)c1cccnc1Cl [Compound 153, (R)-1-(2-chloropyridin-3-yl)ethyl (4-(6-fluoro-5-(methylsulfonamido)pyridin-2-yl)-1-methyl-1H-1,2,3-triazol-5-yl)carbamate]
16 | 1420 | C=Cc1ncccc1[C@@H](C)OC(=O)Nc1c(-c2ccc(NS(C)(=O)=O)c(C)n2)nnn1C [Compound 127, (R)-1-(2-vinylpyridin-3-yl)ethyl (1-methyl-4-(6-methyl-5-(methylsulfonamido)pyridin-2-yl)-1H-1,2,3-triazol-5-yl)carbamate]
17 | 221 | CCCn1nnc(-c2ccc(NS(C)(=O)=O)c(C)n2)c1NC(=O)O[C@H](C)c1ccccc1Cl [Compound 12, (R)-1-(2-chlorophenyl)ethyl (4-(6-methyl-5-(methylsulfonamido)pyridin-2-yl)-1-propyl-1H-1,2,3-triazol-5-yl)carbamate]
18 | 79.2 | Cc1nc(-c2nnn(C)c2NC(=O)OC(C)c2ccnc(F)c2Cl)ccc1NS(C)(=O)=O (centres unmarked) [Compound 77, 1-(3-chloro-2-fluoropyridin-4-yl)ethyl (1-methyl-4-(6-methyl-5-(methylsulfonamido)pyridin-2-yl)-1H-1,2,3-triazol-5-yl)carbamate]

The next lines start with the compound.

Row | Structure (SMILES) | EC50 [nM]
19 | Cc1nc(-c2nnn(C)c2NC(=O)N[C@@H](c2ccccc2)C(F)F)ccc1NS(C)(=O)=O [Compound 65, (S)-N-(6-(5-(3-(2,2-difluoro-1-phenylethyl)ureido)-1-methyl-1H-1,2,3-triazol-4-yl)-2-methylpyridin-3-yl)methanesulfonamide] | 1020
20 | C[C@@H](OC(=O)Nc1c(-c2ccc(NS(C)(=O)=O)cn2)nnn1C)c1cc(F)ccc1F [Compound 17, (R)-1-(2,5-difluorophenyl)ethyl (1-methyl-4-(5-(methylsulfonamido)pyridin-2-yl)-1H-1,2,3-triazol-5-yl)carbamate] | 5
21 | Cn1nnc(-c2ccc(NS(C)(=O)=O)cn2)c1NC(=O)OCc1cccc(F)c1 [Compound 21, 3-fluorobenzyl (1-methyl-4-(5-(methylsulfonamido)pyridin-2-yl)-1H-1,2,3-triazol-5-yl)carbamate] | 37.8
22 | CC(OC(=O)Nc1c(-c2ccc(NS(C)(=O)=O)cn2)nnn1C)c1c(F)cccc1Cl (centres unmarked) [Compound 120, 1-(2-chloro-6-fluorophenyl)ethyl (1-methyl-4-(5-(methylsulfonamido)pyridin-2-yl)-1H-1,2,3-triazol-5-yl)carbamate] | 87
23 | Cc1nc(-c2nnn(C)c2NC(=O)O[C@@H](c2cccc(F)c2)C(F)F)ccc1NS(C)(=O)=O [Compound 58, (S)-2,2-difluoro-1-(3-fluorophenyl)ethyl (1-methyl-4-(6-methyl-5-(methylsulfonamido)pyridin-2-yl)-1H-1,2,3-triazol-5-yl)carbamate] | 43.9
24 | CNc1nc(-c2nnn(C)c2NC(=O)O[C@H](CF)c2ccccc2)ccc1NS(C)(=O)=O [Compound 155, (S)-2-fluoro-1-phenylethyl (1-methyl-4-(6-(methylamino)-5-(methylsulfonamido)pyridin-2-yl)-1H-1,2,3-triazol-5-yl)carbamate] | 84.7
25 | CC(C)NS(=O)(=O)Nc1ccc(-c2nnn(C)c2NC(=O)O[C@H](C)c2cccnc2Cl)nc1 [Compound 160, (R)-1-(2-chloropyridin-3-yl)ethyl (4-(5-((N-isopropylsulfamoyl)amino)pyridin-2-yl)-1-methyl-1H-1,2,3-triazol-5-yl)carbamate] | 267
26 | C[C@@H](OC(=O)Nc1c(-c2ccc(NS(C)(=O)=O)cn2)nnn1C)c1cccnc1Br [Compound 116, (R)-1-(2-bromopyridin-3-yl)ethyl (1-methyl-4-(5-(methylsulfonamido)pyridin-2-yl)-1H-1,2,3-triazol-5-yl)carbamate] | 129
27 | Cc1nc(-c2nnn(C)c2NC(=O)OCc2cccc(F)c2)ccc1NS(C)(=O)=O [Compound 91, 3-fluorobenzyl(1-methyl-4-(6-methyl-5-(methylsulfonamido)pyridin-2-yl)-1H-1,2,3-triazol-5-yl)carbamate] | 72.6
28 | Cc1nc(-c2nnn(C)c2NC(=O)O[C@@H](c2ccccc2)C(F)F)ccc1NS(C)(=O)=O [Compound 57, (S)-2,2-difluoro-1-phenylethyl (1-methyl-4-(6-methyl-5-(methylsulfonamido)pyridin-2-yl)-1H-1,2,3-triazol-5-yl)carbamate] | 48.5
29 | CCCCCC[C@H](OC(=O)Nc1c(-c2ccc(NS(C)(=O)=O)c(C)n2)nnn1C)C(F)(F)F [Compound 51, (S)-1,1,1-trifluorooctan-2-yl (1-methyl-4-(6-methyl-5-(methylsulfonamido)pyridin-2-yl)-1H-1,2,3-triazol-5-yl)carbamate] | 1250
30 | Cn1nnc(-c2ccc(NS(C)(=O)=O)cn2)c1NC(=O)O[C@@H](c1ccccc1)C(F)F [Compound 15, (S)-2,2-difluoro-1-phenylethyl (1-methyl-4-(5-(methylsulfonamido)pyridin-2-yl)-1H-1,2,3-triazol-5-yl)carbamate] | 8.2
31 | C[C@@H](OC(=O)Nc1c(-c2ccc(NS(C)(=O)=O)cn2)nnn1C)c1ccccc1Cl [Compound 10, (R)-1-(2-chlorophenyl)ethyl (1-methyl-4-(5-(methylsulfonamido)pyridin-2-yl)-1H-1,2,3-triazol-5-yl)carbamate] | 37.4
32 | Cc1nc(-c2nnn(C)c2NC(=O)O[C@H](CF)c2cc(F)ccc2F)ccc1NS(C)(=O)=O [Compound 45, (S)-1-(2,5-difluorophenyl)-2-fluoroethyl (1-methyl-4-(6-methyl-5-(methylsulfonamido)pyridin-2-yl)-1H-1,2,3-triazol-5-yl)carbamate] | 55.8
